Test results: patent US10508104B2, “6-hydroxy-5-(phenyl/heteroarylsulfonyl)pyrimidin-4(1H)-one as APJ agonists” (Bristol-Myers Squibb Company, priority 2016, dated 2019)

Target: human APJ receptor (Homo sapiens (Human), UniProt P35414)
Assay: Intracellular cAMP accumulation assay (APJ hcAMP, HTRF)
Format: cell-based
Details: human APJ, cAMP accumulation; read-out: Human APJ cAMP EC50 Potency range
Procedure, shortened: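 HEK293 cells stably expressing human APJ, 5,000 per well, incubated 30 min at rt with compound, […] and 2 μM forskolin. cAMP measured by HTRF against a cAMP standard curve as inhibition of forskolin-driven production. EC50 from variable-slope sigmoidal fit.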

Chain of human APJ receptor (P35414 whole entry): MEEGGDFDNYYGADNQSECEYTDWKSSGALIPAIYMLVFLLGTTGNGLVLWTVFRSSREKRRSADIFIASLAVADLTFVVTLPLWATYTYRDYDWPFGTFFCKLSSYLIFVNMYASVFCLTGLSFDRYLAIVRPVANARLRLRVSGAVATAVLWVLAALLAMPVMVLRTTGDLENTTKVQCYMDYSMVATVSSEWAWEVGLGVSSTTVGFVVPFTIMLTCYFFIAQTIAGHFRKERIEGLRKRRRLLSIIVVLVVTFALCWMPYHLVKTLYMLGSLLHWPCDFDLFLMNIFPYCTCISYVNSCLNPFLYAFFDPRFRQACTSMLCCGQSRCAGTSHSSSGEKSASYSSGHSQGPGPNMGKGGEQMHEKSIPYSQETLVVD

| SMILES | EC50 [nM] |
| --- | --- |
| CCCCc1nc(=O)c(S(=O)(=O)c2ccc(-c3cncc(F)c3)cc2)c(O)n1[C@@H](CC)c1ccccc1 [Example 290, 2-butyl-5-[4-(5-fluoropyridin-3-yl)benzenesulfonyl]-6-hydroxy-1-[(1S)-1-phenylpropyl]-1,4-dihydropyrimidin-4-one] | 0.01 to 10 |
| CCCCc1nc(=O)c(S(=O)(=O)c2ccc(-c3ccncc3C)cc2)c(O)n1[C@@H](CC)c1ccccc1 [Example 291, 2-butyl-6-hydroxy-5-[4-(3-methylpyridin-4-yl)benzenesulfonyl]-1-[(1S)-1-phenylpropyl]-1,4-dihydropyrimidin-4-one] | 0.01 to 10 |
| CCCCc1nc(=O)c(S(=O)(=O)c2ccc(-c3cncc(C)c3)cc2)c(O)n1[C@@H](CC)c1ccccc1 [Example 293, 2-butyl-6-hydroxy-5-[4-(5-methylpyridin-3-yl)benzenesulfonyl]-1-[(1S)-1-phenylpropyl]-1,4-dihydropyrimidin-4-one] | 0.01 to 10 |
| CC(C)OCc1nc(=O)c(S(=O)(=O)c2ccc(Br)cc2)c(O)n1[C@H]1CCc2ccccc21 [Example 299, 5-(4-bromobenzenesulfonyl)-1-[(1S)-2,3-dihydro-1H-inden-1-yl]-6-hydroxy-2-[(propan-2-yloxy)methyl]-1,4-dihydropyrimidin-4-one] | 10 to 100 |
| CCCCc1nc(=O)c(S(=O)(=O)c2ccc(Br)cc2)c(O)n1[C@@H](CC)c1cccc(C#N)c1 [Example 302, 3-[(1S)-1-[5-(4-bromobenzenesulfonyl)-2-butyl-4-hydroxy-6-oxo-1,6-dihydropyrimidin-1-yl]propyl]benzonitrile] | 0.01 to 10 |
| CCOCc1nc(=O)c(S(=O)(=O)c2ccc(C3CC3)cc2)c(O)n1[C@H]1CCc2ccccc21 [Example 303, 5-(4-cyclopropylbenzene-sulfonyl)-1-[(1S)-2,3-dihydro-1H-inden-1-yl]-2-(ethoxymethyl)-6-hydroxy-1,4-dihydropyrimidin-4-one] | 0.01 to 10 |
| CCOCc1nc(=O)c(S(=O)(=O)c2ccc(-c3ccc(F)nc3)cc2)c(O)n1[C@@H](CC)c1ccccc1 [Example 305, 2-(ethoxymethyl)-5-[4-(6-fluoropyridin-3-yl)benzenesulfonyl]-6-hydroxy-1-[(1S)-1-phenylpropyl]-1,4-dihydropyrimidin-4-one] | 0.01 to 10 |
| CCOCc1nc(=O)c(S(=O)(=O)c2ccc(-c3ccncc3C)cc2)c(O)n1[C@@H](CC)c1ccccc1 [Example 306, 2-(ethoxymethyl)-6-hydroxy-5-[4-(3-methylpyridin-4-yl)benzenesulfonyl]-1-[(1S)-1-phenylpropyl]-1,4-dihydropyrimidin-4-one] | 0.01 to 10 |
| CCOCc1nc(=O)c(S(=O)(=O)c2ccc(-c3ccc(OC)nc3C)cc2)c(O)n1[C@@H](CC)c1ccccc1 [Example 309, 2-(ethoxymethyl)-6-hydroxy-5-[4-(6-methoxy-2-methylpyridin-3-yl)benzenesulfonyl]-1-[(1S)-1-phenylpropyl]-1,4-dihydropyrimidin-4-one] | 0.01 to 10 |
| CC[C@@H](c1ccccc1)n1c(COC(C)C)nc(=O)c(S(=O)(=O)c2ccc(-c3ccc(F)nc3C)cc2)c1O [Example 311, 5-[4-(6-fluoro-2-methylpyridin-3-yl)benzenesulfonyl]-6-hydroxy-1-[(1S)-1-phenylpropyl]-2-[(propan-2-yloxy)methyl]-1,4-dihydropyrimidin-4-one] | 0.01 to 10 |
| CC[C@@H](c1ccccc1)n1c(COC(C)C)nc(=O)c(S(=O)(=O)c2ccc(-c3cccnc3C)cc2)c1O [Example 313, 6-hydroxy-5-[4-(2-methylpyridin-3-yl)benzenesulfonyl]-1-[(1S)-1-phenylpropyl]-2-[(propan-2-yloxy)methyl]-1,4-dihydropyrimidin-4-one] | 0.01 to 10 |
| CCOCc1nc(=O)c(S(=O)(=O)c2ccc(-c3ccncc3C)cc2)c(O)n1[C@@H](COC)c1ccccc1 [Example 315, 2-(ethoxymethyl)-6-hydroxy-1-[(1R)-2-methoxy-1-phenylethyl]-5-[4-(3-methylpyridin-4-yl)benzenesulfonyl]-1,4-dihydropyrimidin-4-one] | 0.01 to 10 |

Further lines, results first:

| EC50 [nM] | SMILES |
| --- | --- |
| 0.01 to 10 | CCCCc1nc(=O)c(S(=O)(=O)c2ccc(-n3cc(Cl)ccc3=O)cc2)c(O)n1[C@@H](COC)c1ccccc1 [Example 288, 2-butyl-5-[4-(5-chloro-2-oxo-1,2-dihydropyridin-1-yl)benzenesulfonyl]-6-hydroxy-1-[(1R)-2-methoxy-1-phenylethyl]-1,4-dihydropyrimidin-4-one] |
| 0.01 to 10 | CCCCc1nc(=O)c(S(=O)(=O)c2ccc(-c3ccc(F)nc3)cc2)c(O)n1[C@@H](CC)c1ccccc1 [Example 289, 2-butyl-5-[4-(6-fluoropyridin-3-yl)benzenesulfonyl]-6-hydroxy-1-[(1S)-1-phenylpropyl]-1,4-dihydropyrimidin-4-one] |
| 10 to 100 | CCCCc1nc(=O)c(S(=O)(=O)c2ccc(-c3cnc(C)nc3)cc2)c(O)n1[C@@H](CC)c1ccccc1 [Example 292, 2-butyl-6-hydroxy-5-[4-(2-methylpyrimidin-5-yl)benzenesulfonyl]-1-[(1S)-1-phenylpropyl]-1,4-dihydropyrimidin-4-one] |
| 0.01 to 10 | COC[C@@H](c1ccccc1)n1c(COC(C)C)nc(=O)c(S(=O)(=O)c2ccc(Br)c(F)c2)c1O [Example 294, 5-(4-bromo-3-fluorobenzenesulfonyl)-6-hydroxy-1-[(1R)-2-methoxy-1-phenylethyl]-2-[(propan-2-yloxy)methyl]-1,4-dihydropyrimidin-4-one] |
| 10 to 100 | COC[C@@H](c1ccccc1)n1c(COC(C)C)nc(=O)c(S(=O)(=O)c2ccc(Br)cc2)c1O [Example 295, 5-(4-bromobenzenesulfonyl)-6-hydroxy-1-[(1R)-2-methoxy-1-phenylethyl]-2-[(propan-2-yloxy)methyl]-1,4-dihydropyrimidin-4-one] |
| 100 to 300 | CCOCc1nc(=O)c(S(=O)(=O)c2ccc(Br)cc2)c(O)n1[C@@H](COC)c1ccccc1 [Example 296, 5-(4-bromobenzenesulfonyl)-2-(ethoxymethyl)-6-hydroxy-1-[(1R)-2-methoxy-1-phenylethyl]-1,4-dihydropyrimidin-4-one] |
| 10 to 100 | CCOCc1nc(=O)c(S(=O)(=O)c2ccc(Br)cc2)c(O)n1[C@H]1CCc2ccccc21 [Example 297, 5-(4-bromobenzenesulfonyl)-1-[(1S)-2,3-dihydro-1H-inden-1-yl]-2-(ethoxymethyl)-6-hydroxy-1,4-dihydropyrimidin-4-one] |
| 0.01 to 10 | CCOCc1nc(=O)c(S(=O)(=O)c2ccc(Br)c(F)c2)c(O)n1C(COC)c1cccc(F)c1 (centres unmarked) [Example 298, 5-(4-bromo-3-fluorobenzenesulfonyl)-2-(ethoxymethyl)-1-[1-(3-fluorophenyl)-2-methoxyethyl]-6-hydroxy-1,4-dihydropyrimidin-4-one] |
| 0.01 to 10 | CCOCc1nc(=O)c(S(=O)(=O)c2ccc(Br)c(F)c2)c(O)n1[C@@H](COC)c1ccccc1 [Example 300, 5-(4-bromo-3-fluorobenzenesulfonyl)-2-(ethoxymethyl)-6-hydroxy-1-[(1R)-2-methoxy-1-phenylethyl]-1,4-dihydropyrimidin-4-one] |
| 0.01 to 10 | CCOCc1nc(=O)c(S(=O)(=O)c2ccc(Br)c(F)c2)c(O)n1[C@@H](COC)c1cccc(C#N)c1 [Example 301, 3-[(1R)-1-[5-(4-bromo-3-fluorobenzenesulfonyl)-2-(ethoxymethyl)-6-hydroxy-4-oxo-1,4-dihydropyrimidin-1-yl]-2-methoxyethyl] benzonitrile] |
| 0.01 to 10 | COC[C@@H](c1ccccc1)n1c(COC(C)C)nc(=O)c(S(=O)(=O)c2ccc(-c3ccc(F)nc3C)c(F)c2)c1O [Example 304, 5-[3-fluoro-4-(6-fluoro-2-methylpyridin-3-yl)benzenesulfonyl]-6-hydroxy-1-[(1R)-2-methoxy-1-phenylethyl]-2-[(propan-2-yloxy)methyl]-1,4-dihydropyrimidin-4-one] |
| 0.01 to 10 | CCOCc1nc(=O)c(S(=O)(=O)c2ccc(-c3ccnc(F)c3C)cc2)c(O)n1[C@@H](CC)c1ccccc1 [Example 307, 2-(ethoxymethyl)-5-[4-(2-fluoro-3-methylpyridin-4-yl)benzenesulfonyl]-6-hydroxy-1-[(1S)-1-phenylpropyl]-1,4-dihydropyrimidin-4-one] |
| 0.01 to 10 | CCOCc1nc(=O)c(S(=O)(=O)c2ccc(-c3ccc(F)nc3C)cc2)c(O)n1[C@@H](CC)c1ccccc1 [Example 308, 2-(ethoxymethyl)-5-[4-(6-fluoro-2-methylpyridin-3-yl)benzenesulfonyl]-6-hydroxy-1-[(1S)-1-phenylpropyl]-1,4-dihydropyrimidin-4-one] |
| 0.01 to 10 | CCOCc1nc(=O)c(S(=O)(=O)c2ccc(-c3cccnc3C)cc2)c(O)n1[C@@H](CC)c1ccccc1 [Example 310, 2-(ethoxymethyl)-6-hydroxy-5-[4-(2-methylpyridin-3-yl)benzenesulfonyl]-1-[(1S)-1-phenylpropyl]-1,4-dihydropyrimidin-4-one] |
| 0.01 to 10 | CC[C@@H](c1ccccc1)n1c(COC(C)C)nc(=O)c(S(=O)(=O)c2ccc(-c3ccnc(F)c3C)cc2)c1O [Example 312, 5-[4-(2-fluoro-3-methylpyridin-4-yl)benzenesulfonyl]-6-hydroxy-1-[(1S)-1-phenylpropyl]-2-[(propan-2-yloxy)methyl]-1,4-dihydropyrimidin-4-one] |
| 0.01 to 10 | CC[C@@H](c1ccccc1)n1c(COC(C)C)nc(=O)c(S(=O)(=O)c2ccc(-c3ccncc3C)cc2)c1O [Example 314, 6-hydroxy-5-[4-(3-methylpyridin-4-yl)benzenesulfonyl]-1-[(1S)-1-phenylpropyl]-2-[(propan-2-yloxy)methyl]-1,4-dihydropyrimidin-4-one] |
| 0.01 to 10 | CCOCc1nc(=O)c(S(=O)(=O)c2ccc(-c3ccnc(F)c3C)cc2)c(O)n1[C@@H](COC)c1ccccc1 [Example 316, 2-(ethoxymethyl)-5-[4-(2-fluoro-3-methylpyridin-4-yl)benzenesulfonyl]-6-hydroxy-1-[(1R)-2-methoxy-1-phenylethyl]-1,4-dihydropyrimidin-4-one] |
